The record followed here is ChEMBL document CHEMBL5321279 (J Med Chem, 2023).

Each structure is given as a SMILES string. Calls of active or inactive are those of the source.

Data set [1] is described as follows: (§1) Cytotoxicity against human PC-3 cells assessed as reduction in cell growth measured after 5 days by CellTiter-Glo assay. It is filed as toxicity, cell-based. The conditions noted are these: PC-3 cells, time 5 day.
A short description of data set [2]: Oral bioavailability in rat assessed as prodrug conversion by measuring (2R,3R,4S,5R)-2-(4-aminopyrrolo[2,1-f][1,2,4]triazin-7-yl)-3,4-dihydroxy-5-(hydroxymethyl)tetrahydrofuran-2-carbonitrile at 6 mg/kg administered in solid form measured upto 24 hrs by LC-MS/MS analysis. The class given is ADME, organism-based. The conditions noted are these: in vivo.
The nature of data set [3]: AUC(0 to 24 hrs) in dog at […], po measured upto 24 hrs by LC-MS/MS analysis. The class given is ADME, organism-based, Canis lupus familiaris. The conditions noted are these: in vivo.
Data set [4] is described as follows: Half life in dog assessed as prodrug conversion by measuring (2R,3R,4S,5R)-2-(4-aminopyrrolo[2,1-f][1,2,4]triazin-7-yl)-3,4-dihydroxy-5-(hydroxymethyl)tetrahydrofuran-2-carbonitrile at […], po measured upto 24 hrs by LC-MS/MS analysis. The conditions noted are these: in vivo. It is filed as ADME, organism-based, Canis lupus familiaris.
Data set [5] concerns SARS-CoV-2. Description: Antiviral activity against SARS-CoV-2 infected in African green monkey assessed as reduction in viral titer in nasal swabs at 60 to 120 mg/kg, po qd administered for 4 days starting from 8 hrs post infection by PFA assay. The class given is functional, organism-based. The settings on record: Severe acute respiratory syndrome coronavirus 2, dose lower 60.0 mg/kg, dose upper […], time 4.0 day.

Data set [6] is described as follows: Half life in rat assessed as prodrug conversion by measuring (2R,3R,4S,5R)-2-(4-aminopyrrolo[2,1-f][1,2,4]triazin-7-yl)-3,4-dihydroxy-5-(hydroxymethyl)tetrahydrofuran-2-carbonitrile at 6 mg/kg, po measured upto 24 hrs by LC-MS/MS analysis. The conditions noted are these: in vivo. It is filed as ADME, organism-based.
Data set [7] is described as follows: Cmax in dog assessed as prodrug conversion by measuring (2R,3R,4S,5R)-2-(4-aminopyrrolo[2,1-f][1,2,4]triazin-7-yl)-3,4-dihydroxy-5-(hydroxymethyl)tetrahydrofuran-2-carbonitrile at […], po measured upto 24 hrs by LC-MS/MS analysis. It is filed as ADME, organism-based, Canis lupus familiaris. The conditions noted are these: in vivo.
In data set [8] the test system is SARS-CoV-2. Description: Antiviral activity against SARS-CoV-2 infected in African green monkey assessed as reduction in viral titer in throat swabs at 60 to 120 mg/kg, po qd administered for 6 days starting from 8 hrs post infection by PFA assay. It is filed as functional, organism-based. The conditions noted are these: Severe acute respiratory syndrome coronavirus 2, dose lower 60.0 mg/kg, dose upper […], time 6.0 day.

Data set [9] is described as follows: AUC(0 to 24 hrs) in African green monkey at 60 mg/kg, po measured upto 24 hrs by LC-MS/MS analysis. Also noted: dose 60 mg/kg, time < 24 hrs, route po. The settings on record: chlorocebus sabaeus, in vivo. It is filed as ADME, organism-based.
Data set [10] can be described thus: Cmax in African green monkey assessed as prodrug conversion by measuring (2R,3R,4S,5R)-2-(4-aminopyrrolo[2,1-f][1,2,4]triazin-7-yl)-3,4-dihydroxy-5-(hydroxymethyl)tetrahydrofuran-2-carbonitrile at 86.5 mg/kg, po measured upto 24 hrs by LC-MS/MS analysis. The conditions noted are these: chlorocebus sabaeus, in vivo. It is filed as ADME, organism-based. Also noted: dose 86.5 mg/kg, time < 24 hrs, route po.

Data set [11] deals with SARS-CoV-2. Description: Antiviral activity against SARS-CoV-2 infected in African green monkey assessed as reduction in viral genomic RNA load in nasal swabs at 60 to 120 mg/kg, po qd administered for 4 days starting from 8 hrs post infection by RT-qPCR analysis. The class given is functional, organism-based. The settings on record: Severe acute respiratory syndrome coronavirus 2, dose lower 60.0 mg/kg, dose upper […], time 4.0 day. For orientation: Real-time PCR tracks product formation cycle by cycle.

Data set [12] is described as follows: Oral bioavailability in dog assessed as prodrug conversion by measuring (2R,3R,4S,5R)-2-(4-aminopyrrolo[2,1-f][1,2,4]triazin-7-yl)-3,4-dihydroxy-5-(hydroxymethyl)tetrahydrofuran-2-carbonitrile at […] administered in solid form measured upto 24 hrs by LC-MS/MS analysis. The class given is ADME, organism-based, Canis lupus familiaris. The settings on record: in vivo.

The nature of data set [13]: Stability of compound in rat liver S9 fraction assessed as half life at pH 7.4 measured upto 90 mins by LC-MS/MS analysis. The class given is ADME, subcellular.
The nature of data set [14]: Half life in African green monkey assessed as prodrug conversion by measuring (2R,3R,4S,5R)-2-(4-aminopyrrolo[2,1-f][1,2,4]triazin-7-yl)-3,4-dihydroxy-5-(hydroxymethyl)tetrahydrofuran-2-carbonitrile at 60 mg/kg, po measured upto 24 hrs by LC-MS/MS analysis. The settings on record: chlorocebus sabaeus, in vivo. It is filed as ADME, organism-based.
A short description of data set [15]: Cmax in cynomolgus monkey assessed as prodrug conversion by measuring (2R,3R,4S,5R)-2-(4-aminopyrrolo[2,1-f][1,2,4]triazin-7-yl)-3,4-dihydroxy-5-(hydroxymethyl)tetrahydrofuran-2-carbonitrile at 11.7 mg/kg, po measured upto 24 hrs by LC-MS/MS analysis. It is filed as ADME, organism-based, Macaca fascicularis. Also noted: time < 24 hrs, dose 11.7 mg/kg, route po. The conditions noted are these: in vivo.

Data set [16] can be described thus: Oral bioavailability in African green monkey assessed as prodrug conversion by measuring (2R,3R,4S,5R)-2-(4-aminopyrrolo[2,1-f][1,2,4]triazin-7-yl)-3,4-dihydroxy-5-(hydroxymethyl)tetrahydrofuran-2-carbonitrile at 60 mg/kg measured upto 24 hrs by LC-MS/MS analysis. It is filed as ADME, organism-based. The conditions noted are these: chlorocebus sabaeus, in vivo.

Data set [17] in a line: Oral bioavailability in dog assessed as prodrug conversion by measuring (2R,3R,4S,5R)-2-(4-aminopyrrolo[2,1-f][1,2,4]triazin-7-yl)-3,4-dihydroxy-5-(hydroxymethyl)tetrahydrofuran-2-carbonitrile at […] measured upto 24 hrs by LC-MS/MS analysis. The settings on record: in vivo. It is filed as ADME, organism-based, Canis lupus familiaris.
Data set [18] in a line: Oral bioavailability in African green monkey assessed as prodrug conversion by measuring (2R,3R,4S,5R)-2-(4-aminopyrrolo[2,1-f][1,2,4]triazin-7-yl)-3,4-dihydroxy-5-(hydroxymethyl)tetrahydrofuran-2-carbonitrile at […] measured upto 24 hrs by LC-MS/MS analysis. The class given is ADME, organism-based. The settings on record: chlorocebus sabaeus, in vivo.
The nature of data set [19]: Oral bioavailability in rat assessed as prodrug conversion by measuring (2R,3R,4S,5R)-2-(4-aminopyrrolo[2,1-f][1,2,4]triazin-7-yl)-3,4-dihydroxy-5-(hydroxymethyl)tetrahydrofuran-2-carbonitrile at 6 mg/kg measured upto 24 hrs by LC-MS/MS analysis. It is filed as ADME, organism-based. The settings on record: in vivo.
The subject of data set [20] is SARS-CoV-2. Description: Antiviral activity against SARS-CoV-2 infected in African green monkey assessed as reduction in genomic RNA load in BALF at 60 mg/kg, po qd administered for 1 day starting from 8 hrs post infection by RT-qPCR analysis. The settings on record: Severe acute respiratory syndrome coronavirus 2. It is filed as functional, organism-based.
Data set [21] can be described thus: Cmax in African green monkey assessed as prodrug conversion by measuring (2R,3R,4S,5R)-2-(4-aminopyrrolo[2,1-f][1,2,4]triazin-7-yl)-3,4-dihydroxy-5-(hydroxymethyl)tetrahydrofuran-2-carbonitrile at […], po measured upto 24 hrs by LC-MS/MS analysis. It is filed as ADME, organism-based. The conditions noted are these: chlorocebus sabaeus, in vivo.
Data set [22] concerns PC-3. The description is as §1. It is filed as toxicity, cell-based. The conditions noted are these: pc-3, 120 h, time 5 day.
A short description of data set [23]: AUC(0 to 24 hrs) in African green monkey assessed as prodrug conversion by measuring (2R,3R,4S,5R)-2-(4-aminopyrrolo[2,1-f][1,2,4]triazin-7-yl)-3,4-dihydroxy-5-(hydroxymethyl)tetrahydrofuran-2-carbonitrile at 60 mg/kg, po measured upto 24 hrs by LC-MS/MS analysis. It is filed as ADME, organism-based. The arrangement: time < 24 hrs, dose 60 mg/kg, route po. The conditions noted are these: chlorocebus sabaeus, in vivo.

A short description of data set [24]: Oral bioavailability in cynomolgus monkey assessed as prodrug conversion by measuring (2R,3R,4S,5R)-2-(4-aminopyrrolo[2,1-f][1,2,4]triazin-7-yl)-3,4-dihydroxy-5-(hydroxymethyl)tetrahydrofuran-2-carbonitrile at 11.7 mg/kg measured upto 24 hrs by LC-MS/MS analysis. It is filed as ADME, organism-based, Macaca fascicularis. The settings on record: in vivo.
Data set [25] in a line: Cmax in African green monkey infected with SARS-CoV-2 assessed as prodrug conversion by measuring (2R,3R,4S,5R)-2-(4-aminopyrrolo[2,1-f][1,2,4]triazin-7-yl)-3,4-dihydroxy-5-(hydroxymethyl)tetrahydrofuran-2-carbonitrile at 60 mg/kg, po qd measured after 6 days by LC-MS/MS analysis. The class given is ADME, organism-based, Severe acute respiratory syndrome coronavirus 2. The arrangement: dose 60 mg/kg, time 6 day, route po. The conditions noted are these: in vivo.

Regarding `CCC(CC)COC(=O)[C@H](C)N[P@](=O)(OC[C@H]1O[C@@](C#N)(c2ccc3c(N)ncnn23)[C@H](O)[C@@H]1O)Oc1ccccc1`, the half-maximal cytotoxic concentration (CC50) – broadly, the concentration that lowers cell viability or growth by half – at 120 h in data set [1] was found to be 1400 nM.

As to `CC(C)C(=O)OC[C@H]1O[C@@](C#N)(c2ccc3c(N)ncnn23)[C@H](O)[C@@H]1O` [OBELDESIVIR], the F amounted to 90% in data set [2]; 67% in data set [12]; 36% in data set [16]; 93% in data set [17]; 31% in data set [18]; 63% in [19]. In [24], the F was found to be 37%. In addition, the AUC (in general, concentration integrated over time) in data set [3] amounted to 0.4 µM·h; in data set [9] it was 0.03 µM·h; in data set [23], 129 µM·h. The t1/2 in data set [4] worked out at 3.62 h; in data set [6], 2.02 h; in data set [14], 2.9 h. The outcome in data set [5], in [8] and in data set [11] was Active. For the same molecule, the highest concentration (Cmax) (as a rule, the maximum level reached in the sampled fluid or tissue) amounted to 57.8 µM in [7]; 19.6 µM in data set [10]; 7.57 µM in data set [15]; 6.81 µM in data set [21]; 21 µM in data set [25]. The half-life (commonly the time needed for the level to fall by half in the phase considered) at […] in [13] was under 2 min. For the same molecule, in data set [20], the result was inactive. Further, the CC50 in [22] was over 100000 nM.
